Series [1] in a line: Acute toxicity, peroral administration of aqueous solution to mice. Particulars: mouse, in vivo, po, female JCL-ICR mice 5 to 6 weeks old. The text has this: (2) Examination for acute toxicity:
Acute toxicity was examined by administering perorally an aqueous solution of each Specimen to female JCL-ICR mice 5 to 6 weeks after their birth.

For series [2], the system named is Rat's polynuclear leukocyte migration. Put plainly: Inhibitory effect on polynuclear leukocyte migration (Boyden method). Format: cell-based. Particulars: rat polynuclear leukocytes, read-out: Concentration of 50% inhibition of polynuclear leukocyte migration IC50. The text has this: (1) Examination for inhibitory effect on polynuclear leukocyte migration:
Rat's polynuclear leukocyte migration was examined by the Boyden method.

`O=C(O)[C@H]1CC[C@H](CNCc2ccc(O)c(O)c2)CC1` [II] came in with an LD50 in series [1] of more than 3000 mg/kg. Besides, the IC50 in series [2] worked out at 32 µM.

As to `O=C(O)[C@H]1CC[C@H](CNCc2ccccc2O)CC1` [I], the LD50 in series [1] was more than 3000 mg/kg. The IC50 in series [2] was found to be 340 µM.

Take `COc1ccc2c(c1)c(CC(=O)O)c(C)n2C(=O)c1ccc(Cl)cc1` [III]: the IC50 in series [2] was determined as 240 µM.

(Values after patent US4464396A, “4-[N-(Hydroxybenzyl)aminomethyl]cyclohexane-1-carboxylic acid” (Kureha Kagaku Kogyo Kabushiki Kaisha, priority 1981, dated 1984).)
